Molecules are shown by their SMILES. ≈ marks a conversion by molar mass, not a printed value. Calls of active or inactive are those of the source. The rule behind the calls is not given here.

The target of series [1] is T1, Bombesin receptor subtype-3 (Homo sapiens, UniProt P32247).
T1 sequence (P32247 whole entry): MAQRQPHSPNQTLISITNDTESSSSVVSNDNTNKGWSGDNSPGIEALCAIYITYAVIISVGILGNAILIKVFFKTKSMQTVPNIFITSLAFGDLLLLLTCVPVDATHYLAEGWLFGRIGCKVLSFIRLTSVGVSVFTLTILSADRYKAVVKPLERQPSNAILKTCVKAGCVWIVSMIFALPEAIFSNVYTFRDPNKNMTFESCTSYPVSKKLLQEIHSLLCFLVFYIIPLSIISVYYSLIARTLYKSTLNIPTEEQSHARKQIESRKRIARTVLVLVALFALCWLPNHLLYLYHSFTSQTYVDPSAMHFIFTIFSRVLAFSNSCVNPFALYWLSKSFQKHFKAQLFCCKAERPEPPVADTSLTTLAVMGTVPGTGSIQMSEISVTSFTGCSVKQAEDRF
In words: Agonist activity at human BRS3 expressed in CHOK1 cells measured after 1 hrs by IP-One HTRF assay. In kind it is cell-based. Background: Time-resolved FRET reads energy transfer from a long-lived donor to a nearby acceptor.

The target of series [2] is T2, Bombesin receptor subtype-3 (Mus musculus, UniProt O54798).
T2 sequence (O54798 whole entry): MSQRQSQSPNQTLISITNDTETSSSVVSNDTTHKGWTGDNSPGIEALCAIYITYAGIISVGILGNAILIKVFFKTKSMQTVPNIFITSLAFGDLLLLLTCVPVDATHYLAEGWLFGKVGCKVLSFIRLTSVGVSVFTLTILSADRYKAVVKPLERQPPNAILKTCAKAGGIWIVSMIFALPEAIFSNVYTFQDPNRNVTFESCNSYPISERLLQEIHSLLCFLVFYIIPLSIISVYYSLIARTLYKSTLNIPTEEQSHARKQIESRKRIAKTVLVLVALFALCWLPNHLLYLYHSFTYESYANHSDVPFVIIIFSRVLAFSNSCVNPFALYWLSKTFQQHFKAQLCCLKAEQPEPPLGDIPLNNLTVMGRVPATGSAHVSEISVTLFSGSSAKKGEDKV
In words: Agonist activity at mouse BRS3 expressed in CHOK1 cells measured after 1 hrs by IP-One HTRF assay. The series is classed as cell-based.

The nature of series [3]: Octanol-water distribution coefficient, log D of the compound in PBS buffer at pH 7.4. The series is classed as physicochemical.
The nature of series [4]: Solubility of the compound in JP1 at pH 1.2. In kind it is physicochemical. Particulars: JP1, pH 1.2.
The nature of series [5]: Solubility of the compound in JP2 at pH 6.8. The series is classed as physicochemical. The note with it: JP2, pH 6.8.
Series [6] can be described thus: Fraction unbound in mouse plasma. The series is classed as ADME, cell-free.
Series [7] in a line: Plasma concentration in halothane anesthetized dog at 3 mg/kg/ml, iv measured after 30 mins. The series is classed as ADME, organism-based, Canis lupus familiaris.
The nature of series [8]: Plasma concentration in halothane anesthetized dog at 3 mg/kg/ml, iv measured after 60 mins. The series is classed as ADME, organism-based, Canis lupus familiaris.
The nature of series [9]: Cmax in halothane anesthetized dog showing 100.9% increase in heart rate at 3 mg/kg/ml, iv measured after 30 mins. The series is classed as ADME, organism-based, Canis lupus familiaris. Further details: dose 3 mg/kg, route intravenous. The note with it: in vivo.
A short description of series [10]: Cmax in halothane anesthetized dog not showing increase in heart rate at 3 mg/kg/ml, iv measured after 30 mins. The series is classed as ADME, organism-based, Canis lupus familiaris. Particulars: in vivo. Further details: dose 3 mg/kg, route intravenous.
Series [11] in a line: Drug uptake in mouse plasma assessed as ratio of active compound to metabolite at 3 mg/kg, iv administered as infusion measured after 30 or 60 mins. Particulars: in vivo, 1 h, pooled result: one value given for 2 cell lines, strains, targets or settings. The series is classed as ADME, organism-based.
The nature of series [12]: Drug uptake in mouse brain assessed as active compound level at 3 mg/kg, iv administered as infusion measured after 30 or 60 mins. Particulars: 1 h. The series is classed as ADME, organism-based.
Series [13] can be described thus: Drug uptake in mouse brain assessed as active compound level at 10 mg/kg, iv administered as infusion measured after 30 or 60 mins. The series is classed as ADME, organism-based. The note with it: 1 h.
Series [14] can be described thus: Drug uptake in mouse brain assessed as metabolite level at 3 mg/kg, iv administered as infusion measured after 30 or 60 mins. In kind it is ADME, organism-based. The note with it: 1 h.
The nature of series [15]: Drug uptake in mouse brain assessed as metabolite level at 10 mg/kg, iv administered as infusion measured after 30 or 60 mins. The series is classed as ADME, organism-based. The note with it: 1 h.
For series [16], the species on record is Mus musculus. In words: Antiobesity activity in BRS3-deficient C57BL/6N mouse assessed as anorectic effect measured after 1 hr. The series is classed as functional, organism-based.
The subject of series [17] is Mus musculus. In words: Antiobesity activity in po dosed C57BL/6N mouse assessed as anorectic effect measured after 1 hr. In kind it is functional, organism-based.
In series [18] the test system is Mus musculus. In words: Antiobesity activity in C57BL/6N mouse assessed as reduction in food intake at 30 mg/kg, po measured after 1 hr. In kind it is functional. Further details: scale not given: the % may be the effect or the level left.
Series [19] can be described thus: Cardiotoxicity in halothane anesthetized dog assessed as effect on blood pressure at 3 mg/kg/ml, iv measured after 30 mins. The series is classed as toxicity, organism-based, Canis lupus familiaris. Particulars: in vivo, 0.5 h.

In general, EC50 refers to the concentration needed to bring the measured effect to its halfway point. Turning to `CC(C)(C)Cc1cnc(CCc2ccc(-c3cccc(F)c3C(=O)O)cc2)n1CCC(=O)O`, the EC50 was determined as 11 nM in series [1] and 61 nM in series [2].
A word on the logD: it is lipophilicity at a set pH, counting ionised and neutral species. Usually solubility stands for the dissolved amount per volume that the medium holds. A word on the fraction unbound: it is the share of the substance not bound to proteins or other matrix. The Cmax is the maximum level reached in the sampled fluid or tissue. In the case of `CC(C)(C)Cc1cnc(CCc2ccc(-c3cccc(F)c3C(=O)O)cc2)n1CC(=O)O`, the EC50 in series [1] is 69 nM; in series [2], 140 nM. The logD in series [3] is less than -1.8. In addition, the solubility in series [4] and in [5] was more than 870 µg/mL each time. Besides, the unbound share (fraction unbound) in series [6] came out at 0.181. Also, the concentration at 0.5 h in series [7] stood at 20.1 µM. This molecule also gave a concentration at 1 h in [8] of 1.09 µM. Also, the Cmax came to 4.2 µM in series [9] and 38.1 µM in [10].
As to `CCC(C)(C)Cc1cnc(CCc2ccc(-c3ccccn3)cc2)n1CC(=O)O`, the figures for the EC50 in series [1] and in series [2] were 42 nM and 26 nM, respectively.
On the same counts, the results for `COC(=O)c1ccccc1-c1ccc(CCc2ncc(CC(C)(C)C)n2CC(=O)O)cc1` are 968 nM and 694 nM.
Taken in the same sequence, the figures for `COC(=O)c1ccccc1-c1ccc(CCc2ncc(CC(C)(C)C)[nH]2)cc1` were 644 nM and 498 nM.
On the same counts, the results for `COC(=O)C(C)(C)Oc1ccc(CCc2ncc(CC(C)(C)C)[nH]2)cc1` are more than 10000 nM and 621 nM.
Regarding `COC(=O)c1c(F)cccc1-c1ccc(CCc2ncc(CC(C)(C)C)n2CCC(=O)O)cc1`, the EC50 in series [1] was determined as 1 nM; in [2], 3 nM. Also, the Ratio in series [11] worked out at 1.3. For the same molecule, the Kp in series [12] and in series [13] was 0.02 in each case.
Take `COC(=O)c1c(F)cccc1-c1ccc(CCc2ncc(CC(C)(C)C)n2CCOc2cccc(O)c2)cc1`: the values for the EC50 in series [1] and in series [2] were 13 nM and 25 nM, respectively. The Ratio in series [11] was 2.49. The Kp in [12] is reported as 0.05; in series [13], 0.05; in series [14] it was 0.31; in series [15], 0.31.
In the case of `CC(C)(C)Cc1cnc(CCc2ccc(-c3cccc(F)c3C(=O)O)cc2)n1CCNS(C)(=O)=O`, the EC50 in series [1] was 2 nM; in series [2] it was 4 nM.
In the case of `COC(=O)C(C)(C)c1ccc(CCc2ncc(CC(C)(C)C)[nH]2)cc1`, the EC50 came to 2230 nM in [1] and 9910 nM in [2].
On the same counts, the results for `CC(C)(C)Cc1cnc(CCc2ccc(-c3cccc(F)c3C(=O)O)cc2)n1Cc1ccc(C(=O)O)cc1` are 12 nM and 13 nM.
On the same counts, the results for `CC(C)(C)Cc1cnc(CCc2ccc(-c3ccccc3C(=O)O)cc2)n1CC(=O)O` are 897 nM and 1270 nM.
Taken in the same sequence, the figures for `CC(C)(C)Cc1cnc(CCc2ccc(-c3cccc(F)c3C(=O)O)cc2)n1CCO` were 3 nM and 2 nM.
As to `COC(=O)c1c(F)cccc1-c1ccc(CCc2ncc(CC(C)(C)C)n2Cc2ccc(C(=O)O)cc2)cc1`, the results for the EC50 in series [1] and in series [2] were 3 nM and 5 nM, respectively.
On the same counts, the results for `CCC(C)(C)Cc1cn(CC(=O)O)c(CCc2ccc(-c3ccccn3)cc2)n1` are 4080 nM and 1910 nM.
For the molecule `COC(=O)c1c(F)cccc1-c1ccc(CCc2ncc(CC(C)(C)C)n2CCNS(C)(=O)=O)cc1`, the values for the 50% effective concentration (EC50) in series [1] and in [2] were 11 nM and 7 nM, respectively. In series [11], the Ratio stood at 2.3. For the same molecule, the Kp in [12], in series [13], in series [14] and in series [15] was 0.02 in each case.
Regarding `COC(=O)c1c(F)cccc1-c1ccc(CCc2ncc(CC(C)(C)C)n2CC(=O)O)cc1`, the EC50 in [1] stood at 39 nM; in [2], 44 nM. In addition, the Ratio in [11] is given as 1.31. This molecule gave a pH-dependent lipophilicity (logD) in series [3] of 2. For the same molecule, the result in series [16] was inactive. The solubility was 730 µg/mL (≈ 1610 µM) in series [4] and 370 µg/mL (≈ 818 µM) in series [5]. This molecule came in with a fraction unbound in [6] of 0.0167. Besides, the Activity entry is “Dose-dependent effect” in series [17], 20% in series [18] and “Non-Toxic” in series [19]. For the same molecule, in [7], the concentration at 0.5 h is 28.2 µM. The concentration at 1 h in series [8] was found to be 1.14 µM. For the same molecule, the maximum concentration (Cmax) was determined as 16.8 µM in series [9] and 44.3 µM in series [10].
Regarding `COC(=O)c1c(F)cccc1-c1ccc(CCc2ncc(CC(C)(C)C)n2CCO)cc1`, the EC50 in series [1] was determined as 21 nM; in series [2], 24 nM.
Taken in the same sequence, the figures for `CC(C)(C)Cc1cnc(CCc2ccc(-c3cccc(F)c3C(=O)O)cc2)n1CCOc1cccc(O)c1` were 0.9 nM and 0.8 nM.
On to `COC(=O)c1ccccc1-c1ccc(CCCc2ncc(CC(C)(C)C)[nH]2)cc1`, for which the EC50 in series [1] and in [2] was more than 10000 nM throughout.
